Reference: patent US10150757B2, “Quinazolinone derivatives as PARP inhibitors” (Janssen Pharmaceutica NV, priority 2004, dated 2018)

Key:
[1] = tested on: ischemia and reperfusion of the heart; conditions: rabbits, cited from earlier work
[2] = tested on: colitis; conditions: rats, colitis by intraluminal trinitrobenzene sulfonic acid in 50% ethanol; cited from earlier work
[3] = biological target: T1, TANK-2 enzyme (Homo sapiens, UniProt Q9H2K2); assay: In vitro scintillation proximity assay (SPA) for TANK-2 inhibitory activity; assay type: biochemical; conditions: auto-poly(ADP-ribosyl)ation; 96-well plate results if available, otherwise 384-well; read-out: in vitro SPA assay TANK-2 pIC50 (converted)
T1 construct: made in house
T1 sequence (Q9H2K2 1-1166): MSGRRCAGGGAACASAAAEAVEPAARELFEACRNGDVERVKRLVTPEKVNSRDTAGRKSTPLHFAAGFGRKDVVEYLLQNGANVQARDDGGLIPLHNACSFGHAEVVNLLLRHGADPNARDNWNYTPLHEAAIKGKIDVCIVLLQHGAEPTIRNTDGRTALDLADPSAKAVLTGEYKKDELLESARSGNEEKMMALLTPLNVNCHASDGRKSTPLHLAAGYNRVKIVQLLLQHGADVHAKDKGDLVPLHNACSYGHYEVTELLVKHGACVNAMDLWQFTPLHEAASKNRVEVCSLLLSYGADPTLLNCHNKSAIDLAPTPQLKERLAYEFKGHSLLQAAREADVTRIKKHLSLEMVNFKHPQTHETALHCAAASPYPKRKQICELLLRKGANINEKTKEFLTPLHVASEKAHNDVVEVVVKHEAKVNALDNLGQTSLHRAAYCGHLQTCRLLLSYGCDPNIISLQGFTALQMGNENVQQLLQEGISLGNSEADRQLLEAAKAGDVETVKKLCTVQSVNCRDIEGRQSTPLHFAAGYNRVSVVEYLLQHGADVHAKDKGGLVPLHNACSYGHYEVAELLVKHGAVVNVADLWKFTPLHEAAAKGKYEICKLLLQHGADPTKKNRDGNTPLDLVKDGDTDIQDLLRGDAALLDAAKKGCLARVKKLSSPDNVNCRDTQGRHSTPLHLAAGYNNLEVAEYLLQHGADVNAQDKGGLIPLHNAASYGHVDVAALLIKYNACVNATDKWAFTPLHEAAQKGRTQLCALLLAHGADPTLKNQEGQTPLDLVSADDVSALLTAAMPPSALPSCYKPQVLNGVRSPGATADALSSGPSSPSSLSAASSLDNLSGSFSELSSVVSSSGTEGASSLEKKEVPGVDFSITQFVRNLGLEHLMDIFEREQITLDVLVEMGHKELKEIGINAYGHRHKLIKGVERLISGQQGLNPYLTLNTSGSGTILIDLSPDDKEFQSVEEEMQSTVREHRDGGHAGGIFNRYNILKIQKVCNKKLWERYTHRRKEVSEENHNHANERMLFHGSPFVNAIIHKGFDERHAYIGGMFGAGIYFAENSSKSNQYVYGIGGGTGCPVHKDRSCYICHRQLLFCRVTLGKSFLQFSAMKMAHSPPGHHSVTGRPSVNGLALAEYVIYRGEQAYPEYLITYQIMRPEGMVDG
Method: In Vitro Scintillation Proximity Assay (SPA) for TANK-2 Inhibitory Activity
Compounds of the present invention were tested in an in vitro assay based on SPA technology with Ni Flash plates (96 or 384 well).
In principle, the assay relies upon SPA technology for the detection of auto-poly(ADP-ribosyl)ation of TANK-2 protein using [^3H]-nicotinamide adenine dinucleotide ([^3H]-NAD^+) as ADP-ribosyl donor.
A stock solution of [^3H]-NAD^+/NAD was made by adding 64.6 μl of [^3H]-NAD^+ (0.1 mCi/ml, supplier: Perkin Elmer) and 46.7 μl NAD-stock (10.7 mM, stored at −20° C., supplier Roche) to 1888.7 μl assay buffer (60 mM Tris/HCl, pH 7.4; 0.9 mM DTT; 6 mM MgCl2). The TANK-2 enzyme was produced as described in EP1238063. 60 μl of assay buffer, together with 1 μl of compound in DMSO, 20 μl of [^3H]-NAD^+/NAD and 20 μl of TANK-2 enzyme (final concentration 6 μg/ml) was added per well into a 96-well Ni-coated flash plate (Perkin Elmer). After incubation of the mixture for 120 min. at room temperature, the reaction was terminated by adding 60 μl of stop solution (42.6 mg NAD in 6 ml H2O). The plates were covered with a plate sealer and placed in a TopCountNXT™ (Packard) for scintillation counting. Values were expressed as counts per minute (cpm). For each experiment, controls (containing TANK-2 enzyme and DMSO without compound), a blank incubation (containing DMSO but no TANK-2 enzyme or compound) and samples (containing TANK-2 enzyme and compound dissolved in DMSO) were run in parallel. All compounds tested were dissolved and eventually further diluted in DMSO. In first instance, compounds were tested at a concentration of 10^−5M. […] In each test, the blank value was subtracted from both the control and the sample values. The control sample represented maximal TANK-2 enzyme activity. For each sample, the amount of cpm was expressed as a percentage of the mean cpm value of the controls. When appropriate, IC50-values (concentration of the drug, needed to reduce the TANK-2 enzyme activity to 50% of the control) were computed using linear interpolation between the experimental points just above and below the 50% level. Herein the effects of test compounds are expressed as pIC50 (the negative log value of the IC50-value). As reference compounds, 3-aminobenzamide and 4-amino-1,8-naphthalimide were included to validate the SPA assay. Herein the assay was described using 96-well plates. In the assay using 384-well plates the same final concentrations were used and volumes were adapted.

[4] = biological target: PARP-1 enzyme (Homo sapiens, UniProt P09874); assay: In vitro scintillation proximity assay (SPA) for PARP-1 inhibitory activity; assay type: biochemical; conditions: [3H]-NAD+, biotinylated histones, nicked DNA; read-out: in vitro SPA assay PARP-1 pIC50 (converted)
Sequence of PARP-1 enzyme (P09874 whole entry): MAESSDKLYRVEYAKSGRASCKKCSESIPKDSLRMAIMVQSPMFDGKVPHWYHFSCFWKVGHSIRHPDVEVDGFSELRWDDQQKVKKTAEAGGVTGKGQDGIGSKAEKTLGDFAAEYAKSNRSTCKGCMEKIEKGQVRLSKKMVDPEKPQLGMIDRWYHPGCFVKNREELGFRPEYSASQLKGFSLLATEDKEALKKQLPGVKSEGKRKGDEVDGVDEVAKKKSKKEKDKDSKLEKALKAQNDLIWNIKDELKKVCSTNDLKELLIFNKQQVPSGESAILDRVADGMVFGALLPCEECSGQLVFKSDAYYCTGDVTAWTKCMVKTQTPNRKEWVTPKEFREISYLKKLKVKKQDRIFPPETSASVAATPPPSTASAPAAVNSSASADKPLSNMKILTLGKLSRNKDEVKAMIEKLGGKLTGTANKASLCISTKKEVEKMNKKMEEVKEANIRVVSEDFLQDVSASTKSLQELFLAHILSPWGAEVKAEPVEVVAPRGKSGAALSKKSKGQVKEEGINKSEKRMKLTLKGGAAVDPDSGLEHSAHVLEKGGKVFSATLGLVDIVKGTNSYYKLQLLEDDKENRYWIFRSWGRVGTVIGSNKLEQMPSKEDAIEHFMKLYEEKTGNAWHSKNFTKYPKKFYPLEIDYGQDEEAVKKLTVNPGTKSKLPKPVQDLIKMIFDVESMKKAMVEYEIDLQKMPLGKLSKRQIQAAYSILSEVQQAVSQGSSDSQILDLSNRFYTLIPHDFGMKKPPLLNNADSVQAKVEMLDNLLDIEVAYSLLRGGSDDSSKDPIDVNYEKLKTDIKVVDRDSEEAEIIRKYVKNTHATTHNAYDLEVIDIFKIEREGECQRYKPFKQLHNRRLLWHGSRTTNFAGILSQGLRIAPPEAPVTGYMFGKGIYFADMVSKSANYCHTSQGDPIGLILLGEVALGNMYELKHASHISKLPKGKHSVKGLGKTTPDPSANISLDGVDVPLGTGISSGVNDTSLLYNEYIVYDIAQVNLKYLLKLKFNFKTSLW
Method: In Vitro Scintillation Proximity Assay (SPA) for PARP-1 Inhibitory Activity
Compounds of the present invention were tested in an in vitro assay based on SPA technology (proprietary to Amersham Pharmacia Biotech).
In principle, the assay relies upon the well established SPA technology for the detection of poly(ADP-ribosyl)ation of biotinylated target proteins, i.e histones. This ribosylation is induced using nicked DNA activated PARP-1 enzyme and [^3H]-nicotinamide adenine dinucleotide ([^3H]-NAD^+) as ADP-ribosyl donor.
As inducer of PARP-1 enzyme activity, nicked DNA was prepared. For this, 25 mg of DNA (supplier: Sigma) was dissolved in 25 ml DNAse buffer (10 mM Tris-HCl, pH 7.4; 0.5 mg/ml Bovine Serum Albumine (BSA); 5 mM MgCl2.6H2O and 1 mM KCl) to which 50 μl DNAse solution (1 mg/ml in 0.15M NaCl) was added. After an incubation of 90 min. at 37° C., the reaction was terminated by adding 1.45 g NaCl, followed by a further incubation at 58° C. for 15 min. The reaction mixture was cooled on ice and dialysed at 4° C. for respectively 1.5 and 2 hours against 1.5 l of 0.2M KCl, and twice against 1.5 l of 0.01M KCl for 1.5 and 2 h respectively. The mixture was aliquoted and stored at −20° C. Histones (1 mg/ml, type II-A, supplier: Sigma) were biotinylated using the biotinylation kit of Amersham and stored aliquoted at −20° C. A stock solution of 100 mg/ml SPA poly(vinyl toluene) (PVT) beads (supplier: Amersham) was made in PBS. A stock solution of [^3H]-NAD^+ was made by adding 120 μl of [^3H]-NAD^+ (0.1 mCi/ml, supplier: NEN) to 6 ml incubation buffer (50 mM Tris/HCl, pH 8; 0.2 mM DTT; 4 mM MgCl2). A solution of 4 mM NAD^+ (supplier: Roche) was made in incubation buffer (from a 100 mM stock solution in water stored at −20° C.). The PARP-1 enzyme was produced using art known techniques, i.e. cloning and expression of the protein starting from human liver cDNA. Information concerning the used protein sequence of the PARP-1 enzyme including literature references can be found in the Swiss-Prot database under primary accession number P09874. Biotinylated histones and PVT-SPA beads were mixed and pre-incubated for 30 min. at room temperature. PARP-1 enzyme (concentration was lot dependent) was mixed with the nicked DNA and the mixture was pre-incubated for 30 min. at 4° C. Equal parts of this histones/PVT-SPA beads solution and PARP-1 enzyme/DNA solution were mixed and 75 μl of this mixture together with 1 μl of compound in DMSO and 25 μl of [^3H]-NAD^+ was added per well into a 96-well microtiterplate. The final concentrations in the incubation mixture were 2 μg/ml for the biotinylated histones, 2 mg/ml for the PVT-SPA beads, 2 μg/ml for the nicked DNA and between 5-10 μg/ml for the PARP-1 enzyme. After incubation of the mixture for 15 min. at room temperature, the reaction was terminated by adding 100 μl of 4 mM NAD^+ in incubation buffer (final concentration 2 mM) and plates were mixed.
The beads were allowed to sediment for at least 15 min. and plates transferred to a TopCountNXT™ (Packard) for scintillation counting, values were expressed as counts per minute (cpm). For each experiment, controls (containing PARP-1 enzyme and DMSO without compound), a blank incubation (containing DMSO but no PARP-1 enzyme or compound) and samples (containing PARP-1 enzyme and compound dissolved in DMSO) were run in parallel. All compounds tested were dissolved and eventually further diluted in DMSO. In first instance, compounds were tested at a concentration of 10^−5M. […] In each test, the blank value was subtracted from both the control and the sample values. The control sample represented maximal PARP-1 enzyme activity. For each sample, the amount of cpm was expressed as a percentage of the mean cpm value of the controls. […] Herein the effects of test compounds are expressed as pIC50 (the negative log value of the IC50-value).

Q: With `CCc1cc2cc(CN3CCN(CCNc4nc5ccccc5c(=O)[nH]4)CC3)ccc2nc1OC` (hydrate or solvate) [Compound 3] as the compound, how does the melting point read?
A: The melting point was 118 °C.

Q: For `Oc1cccc2c(O)nccc12` [1,5-dihydroxyisoquinoline], which reduced infarct size ([1]; single injection 1 mg/kg) is on record?
A: The reduced infarct size was 38-48%.

Q: Which “inflammatory response, morphology and energetic status of the distal colon” value [2] does the source give for `NC(=O)c1cccc(N)c1` [3-amino-benzamide] here?
A: Its value is “reduced the inflammatory response and restored the morphology and the energetic status of the distal colon”.

Q: What about the “reductions in infarct size in the heart” value ([1]; single injection 10 mg/kg, one minute before occlusion or one minute before reperfusion) of the same compound?
A: The value was 32-42%.

Q: Which IC50 [3] does the source give for `CC1(C)Cc2cc(Cl)cc(C(=O)NC3CCN(CCCNc4nc(O)c5ccccc5n4)CC3)c2O1` [Compound 11] here?
A: Its IC50 is > 10 µM.

Q: Which IC50 [3] does the source give for `CC1(C)Cc2cc(Cl)cc(C(=O)NC3CCN(CCNc4nc(O)c5ccccc5n4)CC3)c2O1` [Compound 12] here?
A: The IC50 was > 10 µM.

Q: Which IC50 [3] does the source give for `CO[C@H]1CN(CCNc2nc(O)c3ccccc3n2)CC[C@H]1NC(=O)c1cc(Cl)cc2c1OC(C)(C)C2` [Compound 13] here?
A: Its IC50 is > 10 µM.

Q: Which IC50 [3] does the source give for `CO[C@@H]1CN(CCCNc2nc(O)c3cc(Cl)ccc3n2)CC[C@@H]1NC(=O)c1cc(Cl)c(N)c2c1OC(C)(C)C2` [Compound 16] here?
A: The IC50 was > 10 µM.

Q: For `CO[C@@H]1CN(CCCNc2nc(O)c3ccc(Cl)cc3n2)CC[C@@H]1NC(=O)c1cc(Cl)c(N)c2c1OC(C)(C)C2` [Compound 17], which IC50 [3] is on record?
A: The IC50 was > 10 µM.

Q: For `O=c1[nH]c(NCCN2CCN(c3n[nH]c4ccccc34)CC2)nc2ccccc12` [Compound 19], which IC50 [3] is on record?
A: The IC50 was > 10 µM.

Q: With `COc1cc2nc(NCCN3CCN(c4n[nH]c5ccccc45)CC3)[nH]c(=O)c2cc1OC` [Compound 32] as the compound, how does the IC50 [4] read?
A: The IC50 was 0.0452 µM.

Q: For `Cc1cccc2nc(NCCN3CCC(c4n[nH]c5cc(F)ccc45)CC3)[nH]c(=O)c12` [Compound 34], which IC50 [4] is on record?
A: Its IC50 is 0.0217 µM.

Q: For `O=c1[nH]c(NCCN2CCN(c3n[nH]c(=O)c4ccccc34)CC2)nc2ccccc12` [Compound 35], which IC50 [4] is on record?
A: Its IC50 is 0.0107 µM.
